Consider 11 molecules from patent publication US4152436A, “Acylated pentadienone hydrazone, method for preparing the same, and use as fire ant control agents” (American Cyanamid Company, priority 1978, dated 1979).

Data set [1] in a line: Solubility in soybean oil. It is filed as physicochemical. The source says: Determination of the Solubility of the Compounds of the Invention in Soybean Oil
The sample of the compound is then reweighed, the difference between the initial and final weights corresponding to the weight of the compound in solution.

The subject of data set [2] is Tobacco Budworm [Heliothis virescens (Fabricius)]. As to the kind of experiment: Insecticide test, tobacco budworm 1st instar (eggs / newly hatched larvae on dipped cotton leaf). It is filed as in vivo. The conditions noted are these: 72 h, read-out: % kill, Tobacco Budworm 1st Instar. The protocol: Tobacco Budworm [Heliothis virescens (Fabricius)]
A cotton plant with 2 true leaves expanded is dipped for 3 seconds with agitation in a 300 ppm solution. A 1.25 to 2 cm square of cheesecloth with about 50 to 100 budworm eggs 0-24 hours old is also dipped in the test solution and placed on one leaf to dry. The leaf with the treated budworm eggs is removed from the plant and placed in a 236.6 ml (8-oz) Dixie cup with a wet 5 cm piece of dental wick and covered with a lid. The other leaf is placed in a similar cup with a wick and a piece of cheesecloth infested with 50-100 newly hatched larvae is added before covering the cup with a lid. After 3 days at 26.7° C., observations of egg hatch are made as well as kill of newly hatched larvae, any inhibition of feeding, or interference of any sort with normal development.
(§1) Compounds rated active (8 or 9) are further tested at reduced concentrations in 50% acetone:50% water.

Data set [3] shares this test system. In words: whole plant or invertebrate. It is filed as in vivo. To be noted: 72 h, read-out: % kill, Tobacco Budworm 3rd Instar. The protocol:
Third Instar Three cotton plants with just expanded cotyledons are dipped in a 1000 ppm solution, and placed in a hood to dry. When dry, each cotyledon is cut in half and each half is placed in one of ten 29.6 ml plastic medicine cups containing a 1.25 cm dental wick saturated with water, and one third instar budworm larva is added. The cup is capped and held for 3 days at 26.7° C., after which mortality counts are made. Compounds rated active (8 or 9) are further tested at reduced concentrations in 50% acetone:50% water.

Data set [4] relates to Southern Armyworm [Spodoptera eridania (Cramer)]. As to the kind of experiment: whole plant or invertebrate. It is filed as in vivo. The conditions noted are these: for mortality at 10 ppm / mortality at 100 ppm / mortality at 1000 ppm: 48 h, read-out: % kill, Southern Armyworm 3rd Instar; for pest or weed control at 1000 µg/mL: 168 h, second leaf, 7 days from original treatment, read-out: % kill, Southern Armyworm 3rd Instar, 7 days (residual activity). Here is the method: Southern Armyworm [Spodoptera eridania ([…] bean plant with just the primary leaves expanded to 7.6 to 10 cm is dipped for 3 seconds with agitation in a 1000 ppm solution and set in a hood to dry. […] The dish is covered and held at 26.7° C. After 2 days mortality counts and estimates of the amount of feeding are made. Compounds showing partial kill and/or inhibition of feeding are held for an extra day for further observations. All compounds showing activity as defined above are retested, using the second leaf on the bean plant, after an interval of 7 days from original treatment, as an assay of residual activity. Compounds rated active (8 or 9) are further tested at reduced concentrations in 50% acetone:50% water.

Data set [5] concerns Cabbage Looper [Trichoplusia ni (Hubner)]. As to the kind of experiment: Insecticide test, cabbage looper 3rd instar. It is filed as in vivo. The conditions noted are these: 48 h, 2 days, 26.7° C., read-out: % kill, Cabbage Looper 3rd Instar. The protocol:
Cabbage Looper [Trichoplusia ni (Hubner)]
A primary leaf of a cotton plant is dipped in the test solution and agitated for 3 seconds. It is then set in a hood to dry. Following this, the leaf is placed in a 10 cm petri dish containing a moist filter paper at the bottom and 10 third-instar loopers. The dish is covered and held at 26.7° C. After 2 days, mortality counts and estimates of feeding damage are recorded. Those materials showing partial kill and/or inhibition of feeding are held for another day for further observations.
as §1

`CC1(C)CN=C(NN=C(C=Cc2ccc(C(F)(F)F)cc2)C=Cc2ccc(C(F)(F)F)cc2)NC1`: in data set [1], the “Solubility in Soybean oil, In % of w/w” value is listed as 0.1 % of w/w and the “Solubility in Soybean oil, In g/g of oil” value is reported as 0.001 g/g of oil.
`CC(C)C(=O)N1CC(C)(C)CN=C1NN=C(C=Cc1ccc(C(F)(F)F)cc1)C=Cc1ccc(C(F)(F)F)cc1` [R1=CF3, R3=(CH3)2 CH]: the mortality at 300 ppm in data set [2] was 86 to 95%. Further, in data set [3], the mortality at 10 ppm stood at 0%, the mortality at 100 ppm is 50% and the mortality at 1000 ppm amounted to 100%. In data set [4], the mortality at 10 ppm is 0%, the mortality at 100 ppm stood at 100% and the mortality at 1000 ppm was determined as 100%. In data set [5], the mortality at 10 ppm worked out at 0%, the mortality at 100 ppm turned out to be 100% and the mortality at 1000 ppm turned out to be 100%.
As for `CC(=O)N1CC(C)(C)CN=C1NN=C(C=Cc1ccc(C(F)(F)F)cc1)C=Cc1ccc(C(F)(F)F)cc1` [R1=CF3, R3=CH3, 1,5-bis(α,α,α-Trifluoro-p-tolyl)-1,4-pentadien-3-one, (1-acetyl-1,4,5,6-tetrahydro-5,5-dimethyl-2-pyrimidinyl)hydrazone], in data set [2], the mortality at 100 ppm fell in the range of 0 to 40% and the mortality at 300 ppm was in the range of 86 to 95%. Besides, in data set [3], the mortality at 10 ppm stood at 40%, the mortality at 100 ppm was 100% and the mortality at 1000 ppm was determined as 100%. For the same molecule, in data set [4], the mortality at 10 ppm was found to be 0%, the mortality at 100 ppm came to 100%, the mortality at 1000 ppm turned out to be 100% and the pest or weed control at 1000 µg/mL worked out at 100%. Besides, in data set [5], the mortality at 10 ppm was 41 to 60%, the mortality at 100 ppm lay in the range of 86 to 95% and the mortality at 1000 ppm was 100%.
In the case of `CCCCC(=O)N1CC(C)(C)CN=C1NN=C(C=Cc1ccc(C(F)(F)F)cc1)C=Cc1ccc(C(F)(F)F)cc1` [R1=CF3, R3=n-C4 H9], in data set [2], the mortality at 300 ppm was in the range of 86 to 95%. Besides, in data set [3], the mortality at 100 ppm was found to be 40% and the mortality at 1000 ppm amounted to 100%. Further, in data set [4], the mortality at 10 ppm was found to be 0%, the mortality at 100 ppm came to 100%, the mortality at 1000 ppm turned out to be 100% and the pest or weed control at 1000 µg/mL amounted to 100%. Moreover, in data set [5], the mortality at 100 ppm is 100% and the mortality at 1000 ppm was 100%.
With `CCCCCCCCC=CCCCCCCCC(=O)N1CC(C)(C)CN=C1NN=C(C=Cc1ccc(C(F)(F)F)cc1)C=Cc1ccc(C(F)(F)F)cc1` [R1=CF3, R3=n-C8 H17CHCH(CH2)7], the mortality at 10 ppm was 0 to 40% in data set [2], 0% in data set [3], 20% in data set [4] and 0% in data set [5]. Moreover, the mortality at 100 ppm in data set [2], in data set [3], in data set [4] and in data set [5] was 100% each time. In addition, the mortality at 1000 ppm in data set [3], in data set [4] and in data set [5] was 100% each time. In addition, the pest or weed control at 1000 µg/mL in data set [4] is 100%.
As for `CCCCCCCCCCCCCCCC(=O)N1CC(C)(C)CN=C1NN=C(C=Cc1ccc(C(F)(F)F)cc1)C=Cc1ccc(C(F)(F)F)cc1` [R1=CF3, R3=n-C15 H31], in data set [2], the mortality at 100 ppm lay in the range of 0 to 40% and the mortality at 300 ppm was in the range of 86 to 95%. Also, in data set [3], the mortality at 10 ppm worked out at 0%, the mortality at 100 ppm turned out to be 30% and the mortality at 1000 ppm amounted to 100%. In addition, in data set [4], the mortality at 10 ppm came out at 0%, the mortality at 100 ppm is 100%, the mortality at 1000 ppm was 100% and the pest or weed control at 1000 µg/mL came to 80%. Besides, in data set [5], the mortality at 10 ppm was found to be 0%, the mortality at 100 ppm turned out to be 60% and the mortality at 1000 ppm came out at 100%.
Regarding `CC(=O)N1CC(C)(C)CN=C1NN=C(C=Cc1ccc(Cl)cc1)C=Cc1ccc(Cl)cc1` [R1=Cl, R3=CH3], the mortality at 10 ppm in data set [2] is 0 to 40%; in data set [3], 0%; in data set [5], 0%. Besides, the mortality at 100 ppm in data set [2], in data set [3], in data set [4] and in data set [5] was 100% each time. Besides, the mortality at 1000 ppm in data set [3], in data set [4] and in data set [5] was 100% in each case.
With `CC(=O)N1CC(C)(C)CN=C1NN=C(C=Cc1ccc(C(F)(F)F)cc1)C=Cc1ccc(C(F)(F)F)cc1` [drawing 31], in data set [1], the “Solubility in Soybean oil, In % of w/w” value is 0.3 % of w/w and the “Solubility in Soybean oil, In g/g of oil” value is recorded as 0.003 g/g of oil.
Consider `CC1(C)CN=C(NN=C(C=Cc2ccc(C(F)(F)F)cc2)C=Cc2ccc(C(F)(F)F)cc2)N(C(=O)c2ccccc2)C1` [drawing 32], for which, in data set [1], the “Solubility in Soybean oil, In % of w/w” value is reported as 0.4 % of w/w and the “Solubility in Soybean oil, In g/g of oil” value is on record as 0.004 g/g of oil.
The like results for `CCCCCCCCCCCCCCCC(=O)N1CC(C)(C)CN=C1NN=C(C=Cc1ccc(C(F)(F)F)cc1)C=Cc1ccc(C(F)(F)F)cc1` [drawing 33] were, in that order, 2.0 % of w/w and 0.02 g/g of oil.
`CC1(C)CN=C(NN=C(C=Cc2ccc(C(F)(F)F)cc2)C=Cc2ccc(C(F)(F)F)cc2)N(C(=O)c2ccccc2)C1` [drawing 35]: the mortality at 100 ppm in data set [2] fell in the range of 0 to 40%. Also, in data set [3], the mortality at 10 ppm was 0%, the mortality at 100 ppm came to 100% and the mortality at 1000 ppm is 100%. Moreover, in data set [4], the mortality at 10 ppm was found to be 0%, the mortality at 100 ppm amounted to 100%, the mortality at 1000 ppm was determined as 100% and the pest or weed control at 1000 µg/mL amounted to 100%. Also, in data set [5], the mortality at 10 ppm was 0%, the mortality at 100 ppm worked out at 100% and the mortality at 1000 ppm worked out at 100%.
